We go through seven molecules from ChEMBL document CHEMBL1141313 (Bioorg Med Chem, 2007).

For assay [1], the target named is Protease (Human immunodeficiency virus 1) (UniProt Q9YQ12). As to the kind of experiment: (§1) Inhibition of HIV1 protease.
For assay [2], the system named is Human immunodeficiency virus 1. Briefly: Antiviral activity against HIV1 in CEM cells. In kind it is functional. The note with it: Human immunodeficiency virus 1, CCRF-CEM; for IC50: read-out: ID50 (the source's name).
Assay [3] relates to Human immunodeficiency virus 1. Briefly: Antiviral activity against HIV1 in MT4 cells. The format is functional.
For assay [4], the target named is T1, Protease (Human immunodeficiency virus 1, UniProt Q9YQ12). Described as §1.
Target sequence in this assay (Q9YQ12 whole entry): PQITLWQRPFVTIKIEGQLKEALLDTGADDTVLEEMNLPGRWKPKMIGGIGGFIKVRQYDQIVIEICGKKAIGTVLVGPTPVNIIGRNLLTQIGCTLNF
The test system of assay [5] is Human immunodeficiency virus 1. As to the kind of experiment: Antiviral activity against protease inhibitor-resistant HIV1 isolate. In kind it is functional, organism-based.
Assay [6] deals with T1, Protease. Briefly: Inhibition of HIV1 protease mutant.
Target sequence in this assay (Q9YQ12 1-99): as the sequence (Q9YQ12 whole entry) above

The structures appear in SMILES notation. Where only a bound is given, the exact number is not on record here.

Sequence of Protease (Human immunodeficiency virus 1) (Q9YQ12 as listed by the source): as the sequence (Q9YQ12 whole entry) above

As for `COC(=O)N[C@H](C(=O)NCCCC[C@@H](COP(=O)(O)O)N(CC(C)C)S(=O)(=O)c1ccc(N)cc1)C(c1ccccc1)c1ccccc1`, the Activity in assay [1] was below 20 nM. With `CC(C)CN(C[C@@H](O)[C@H](Cc1ccccc1)NC(=O)O[C@H]1CO[C@H]2OCC[C@H]21)S(=O)(=O)c1ccc(N)cc1`, the IC50 in assay [2] was 4.7 nM. In assay [3], this molecule showed an ID90 of 10 nM and a TD50 above 100 µM. As for `C=CCNC(=O)[C@H]1NC(C(=O)[C@@H](O)[C@H](Cc2ccccc2)NC(=O)c2cccc(O)c2)SC1(C)C` (stereo partly drawn), the inhibition constant (Ki) in assay [4] and in assay [6] was 0.1 nM throughout. This molecule also registered an EC50 in assay [5] of 34 nM. As to `CC(C)(C)NC(=O)[C@@H]1C[C@@H]2CCCC[C@@H]2CN1C[C@@H](O)[C@H](Cc1ccccc1)NC(=O)O[C@H]1CO[C@H]2OCC[C@H]21`, in assay [2] (read-out: CIC95), the IC95 came to 46 nM. This molecule showed an IC50 in assay [4] of 1.8 nM. The molecule `COC(=O)N[C@H](C(=O)NCCCC[C@@H](CO)N(CC(C)C)S(=O)(=O)c1ccc(N)cc1)C(c1ccccc1)c1ccccc1` registered an Activity in assay [1] below 20 nM. As to `COc1ccc(S(=O)(=O)N(CC(C)C)C[C@@H](O)[C@H](Cc2ccccc2)NC(=O)O[C@H]2CO[C@H]3OCC[C@H]32)cc1`, the IC50 in assay [2] amounted to 1.2 nM. `CC(C)CN(C[C@@H](O)[C@H](Cc1ccccc1)NC(=O)O[C@@H]1C[C@@H]2CCO[C@@H]2C1)S(=O)(=O)c1ccc(CO)cc1`: in assay [4], the IC50 worked out at 1.8 nM and the affinity corresponds to a Ki of 0.0045 nM.
